Patent publication US8329726B2, “Inhibitors of VEGF receptor and HGF receptor signaling” (MethylGene Inc., priority 2005, dated 2012)
Like-named read-outs stand apart in the source and are kept apart here.

What was measured:
[1] = biological target: T1, recombinant human c-Met/HGF receptor (Homo sapiens, UniProt P08581); assay: In vitro receptor tyrosine kinase assay (DELFIA), c-Met/HGF receptor; format: biochemical
T1 construct: His tag (pBlueBacHis2A vector); made in house; host or cells: Hi-5 cells (Trichoplusia ni), baculovirus
Description: Cell pellets were frozen at −80° C. until purification was performed.
The coated plates were washed and stored at 4° C. […] After incubation, the kinase reactions were quenched with EDTA and the plates were washed.

TPR-MET fusion protein = biological target: T2, TPR-MET fusion protein (Homo sapiens, UniProt P08581); assay: C-Met phosphorylation cell-based assay (MNNGHOS cells)
T2 construct: the MET gene on chromosome 7 encoding for its cytoplasmic region catalytic domain; host or cells: MNNGHOS cells; the other entry of the earlier key: TPR (P12270, Nucleoprotein TPR)
Excerpt: C-Met Phosphorylation Cell-Based Assay
Signal was quantitated by densitometry on Alpha-Imager.

VEGF receptor KDR = biological target: T3, VEGF receptor KDR (Homo sapiens, UniProt P35968); assay: In vitro receptor tyrosine kinase assay (DELFIA), VEGF receptor KDR; format: biochemical; settings: GST-VEGFR2 806-1356, 0.6 uM ATP, DELFIA; read-out: VEGFR (IC50)
T3 construct: made in house; host or cells: Sf9 cells (Spodoptera frugiperda), baculovirus

U87MG = assay: In vivo solid tumor disease model, U87MG; design: species or system female athymic CD1 mice; settings: 75 mg/kg p.o. once daily, 14 days
Excerpt: In Vivo Solid Tumor Disease Model
This test measures the capacity of compounds to inhibit solid tumor growth.
Tumor xenografts are established in the flank of female athymic CD1 mice (Charles River Inc.), by subcutaneous injection of 1×10^6 U87, A431 or SKLMS cells/mouse. Once established, tumors are then serially passaged s.c. in nude mice hosts. Tumor fragments from these host animals are used in subsequent compound evaluation experiments. For compound evaluation experiments female nude mice weighing approximately 20 g are implanted s.c. by surgical implantation with tumor fragments of ˜30 mg from donor tumors. When the tumors are approximately 100 mm^3 in size (˜7-10 days following implantation), the animals are randomized and separated into treatment and control groups. Each group contains 6-8 tumor-bearing mice, each of which is ear-tagged and followed individually throughout the experiment.
Mice are weighed and tumor measurements are taken by calipers three times weekly, starting on Day 1. These tumor measurements are converted to tumor volume by the well-known formula […]. The experiment is terminated when the control tumors reach a size of approximately 1500 mm^3. […] In addition to tumor volumes, body weight of animals is monitored twice weekly for up to 3 weeks. […]

A549 = assay: In vivo solid tumor disease model, A549; design: species or system female athymic CD1 mice; settings: 14 days
Colo265 = assay: In vivo solid tumor disease model, Colo265; design: species or system female athymic CD1 mice; settings: Colo265, 30 mg/kg i.p. once daily, 14 days
MV4-11 = assay: In vivo solid tumor disease model, MV4-11; design: species or system female athymic CD1 mice; settings: MV4-11, 20 mg/kg p.o. once daily, 14 days
[2] = recombinant c-Met IC, 10 uM ATP, DELFIA, read-out: C-Met (IC50)
[3] = MNNGHOS cells, 3 hours treatment, immunoblot, read-out: Y1230-34-35 TPR-MET phosphorylation (IC50)

T2 sequence (P08581 with tags, fused parts or gaps): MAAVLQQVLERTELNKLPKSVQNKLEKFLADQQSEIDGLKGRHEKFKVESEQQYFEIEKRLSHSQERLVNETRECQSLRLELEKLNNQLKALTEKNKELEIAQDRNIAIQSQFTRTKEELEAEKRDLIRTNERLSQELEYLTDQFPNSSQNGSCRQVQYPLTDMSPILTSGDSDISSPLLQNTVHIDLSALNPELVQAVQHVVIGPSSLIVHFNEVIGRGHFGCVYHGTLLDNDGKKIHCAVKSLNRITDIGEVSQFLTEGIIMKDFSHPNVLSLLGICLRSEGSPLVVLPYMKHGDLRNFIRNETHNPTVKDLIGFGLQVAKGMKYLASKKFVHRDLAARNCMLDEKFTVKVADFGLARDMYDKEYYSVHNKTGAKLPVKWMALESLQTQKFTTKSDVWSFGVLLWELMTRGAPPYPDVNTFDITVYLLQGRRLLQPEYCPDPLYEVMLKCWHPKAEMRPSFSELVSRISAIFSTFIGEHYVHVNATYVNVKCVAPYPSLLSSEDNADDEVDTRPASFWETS
T3 sequence (P35968 806-1356): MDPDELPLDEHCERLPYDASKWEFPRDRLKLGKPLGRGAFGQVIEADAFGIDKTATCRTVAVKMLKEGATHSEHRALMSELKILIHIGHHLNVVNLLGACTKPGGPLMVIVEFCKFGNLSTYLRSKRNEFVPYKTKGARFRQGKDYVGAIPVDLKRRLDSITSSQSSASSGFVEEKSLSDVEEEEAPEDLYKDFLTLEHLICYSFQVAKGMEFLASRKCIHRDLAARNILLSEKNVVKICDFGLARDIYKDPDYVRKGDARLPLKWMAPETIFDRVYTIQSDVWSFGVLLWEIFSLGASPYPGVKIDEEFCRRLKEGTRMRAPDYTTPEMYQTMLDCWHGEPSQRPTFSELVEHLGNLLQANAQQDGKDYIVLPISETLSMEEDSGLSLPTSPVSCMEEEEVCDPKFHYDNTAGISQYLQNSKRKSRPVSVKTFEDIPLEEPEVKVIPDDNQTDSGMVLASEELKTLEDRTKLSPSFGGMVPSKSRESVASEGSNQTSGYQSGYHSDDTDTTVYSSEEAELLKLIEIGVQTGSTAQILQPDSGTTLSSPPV
T1 sequence (P08581 1078-1337): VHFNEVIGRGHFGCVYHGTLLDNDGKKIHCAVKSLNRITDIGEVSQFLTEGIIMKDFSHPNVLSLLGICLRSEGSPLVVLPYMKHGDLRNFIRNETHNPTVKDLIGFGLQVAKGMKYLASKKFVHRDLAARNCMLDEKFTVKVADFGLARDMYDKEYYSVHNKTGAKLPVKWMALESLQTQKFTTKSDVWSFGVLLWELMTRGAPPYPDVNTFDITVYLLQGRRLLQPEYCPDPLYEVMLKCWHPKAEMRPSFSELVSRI

Compound: CN(C(=O)CC(=O)Nc1ccc(Oc2ccnc3cc(-c4nccn4C)sc23)c(F)c1)c1ccccc1 [Compound 32, N^1-(3-Fluoro-4-(2-(1-methyl-1H-imidazol-2-yl)thieno[3,2-b]pyridin-7-yloxy)phenyl)-N^3-methyl-N^3-phenylmalonamide]
- IC50 [1, 2]: 109 nM
- IC50 (TPR-MET fusion protein; [3]): > 5000 nM
- IC50 (VEGF receptor KDR): 5 nM

Compound: CCn1cnc(-c2cc3nccc(Oc4ccc(NC(=O)CC(=O)Nc5ccccc5F)cc4F)c3s2)c1 [drawing 461]
- Tumor Growth Inhibition (%) (U87MG): b (% TGI in the range of 50-74)

Compound: Cn1ccnc1-c1cc2nccc(Oc3ccc(NC(=O)CC(=O)Nc4ccccc4)cc3F)c2s1 [Compound 5b, N^1-(3-Fluoro-4-(2-(1-methyl-1H-imidazol-2-yl)thieno[3,2-b]pyridin-7-yloxy)phenyl)-N^3-phenylmalonamide]
- IC50 [1, 2]: 52 nM
- IC50 (TPR-MET fusion protein; [3]): 40 nM
- IC50 (VEGF receptor KDR): 4 nM

Compound: CCn1cnc(-c2cc3nccc(Oc4ccc(NC(=O)C5(C(=O)Nc6ccccc6)CC5)cc4F)c3s2)c1 [drawing 463]
- Tumor Growth Inhibition (%) (A549; A549, 40 mg/kg p.o. once daily): b (% TGI in the range of 50-74)

Compound: CN(C(=O)CC(=O)Nc1ccc(Oc2ccnc3cc(-c4cn(CCN5CCCC5)cn4)sc23)c(F)c1)c1ccccc1
- Tumor Growth Inhibition (%) (Colo265): b (% TGI in the range of 50-74)

Compound: CN1CCN(CCN(C)Cc2ccc(-c3cc4nccc(Oc5ccc(NC(=O)CC(=O)Nc6ccccc6)cc5F)c4s3)cc2)CC1 [drawing 464]
- Tumor Growth Inhibition (%) (MV4-11): b (% TGI in the range of 50-74)

Compound: Cn1cnc(-c2cc3nccc(Oc4ccc(NC(=O)CC(=O)Nc5ccccc5)cc4F)c3s2)c1 [Compound 5c, N^1-{3-Fluoro-4-[2-(1-methyl-1H-imidazol-4-yl)thieno[3,2-b]pyridin-7-yloxy]-phenyl}-N^3-phenylmalonamide]
- IC50 [1, 2]: 19 nM
- IC50 (TPR-MET fusion protein; [3]): 8 nM
- IC50 (VEGF receptor KDR): 3 nM

Compound: Cn1cncc1-c1cc2nccc(Oc3ccc(NC(=O)CC(=O)Nc4ccccc4)cc3F)c2s1 [Compound 5e, N^1-(3-Fluoro-4-(2-(1-methyl-1H-imidazol-5-yl)thieno[3,2-b]pyridin-7-yloxy)phenyl)-N^3-phenylmalonamide]
- IC50 [1]: 16 nM
- IC50 (TPR-MET fusion protein): 155 nM
- IC50 (VEGF receptor KDR): 5 nM

Compound: Cn1ccnc1-c1cc2nccc(Oc3ccc(NC(=O)CC(=O)Nc4ccccc4F)cc3F)c2s1 [Compound 30a, N^1-(3-Fluoro-4-(2-(1-methyl-1H-imidazol-2-yl)thieno[3,2-b]pyridin-7-yloxy)phenyl)-N^3-(2-fluorophenyl)malonamide]
- IC50 [1, 2]: 31 nM
- IC50 (TPR-MET fusion protein; [3]): 28 nM
- IC50 (VEGF receptor KDR): 5 nM

Compound: O=C(CC(=O)Nc1ccc(Oc2ccnc3cc(C(=O)N4CCCC4)sc23)c(F)c1)Nc1ccccc1 [Compound 5f, N^1-(3-Fluoro-4-(2-(pyrrolidine-1-carbonyl)thieno[3,2-b]pyridin-7-yloxy)phenyl)-N^3-phenylmalonamide]
- IC50 [1, 2]: 40 nM
- IC50 (TPR-MET fusion protein; [3]): ~2000 nM
- IC50 (VEGF receptor KDR): 4 nM

Compound: CCn1cnc(-c2cc3nccc(Oc4ccc(NC(=O)CC(=O)Nc5ccccc5)cc4F)c3s2)c1 [drawing 460]
- Tumor Growth Inhibition (%) (U87MG): b (% TGI in the range of 50-74)

Compound: Cn1ccnc1-c1cc2nccc(Oc3ccc(NC(=O)CC(=O)Nc4cccnc4)cc3F)c2s1 [Compound 40, N^1-(3-Fluoro-4-(2-(1-methyl-1H-imidazol-2-yl)thieno[3,2-b]pyridin-7-yloxy)phenyl)-N^3-(pyridine-3-yl)malonamide]
- IC50 [1, 2]: 268 nM
- IC50 (TPR-MET fusion protein; [3]): ~500 nM
- IC50 (VEGF receptor KDR): 13 nM

Compound: COc1ccccc1NC(=O)CC(=O)Nc1ccc(Oc2ccnc3cc(-c4cncn4C)sc23)c(F)c1 [Compound 28c, N^1-(3-Fluoro-4-(2-(1-methyl-1H-imidazol-5-yl)thieno[3,2-h]pyridin-7-yloxy)phenyl)-N^3-(2-methoxyphenyl)malonamide]
- IC50 [1, 2]: 40 nM
- IC50 (TPR-MET fusion protein; [3]): 590 nM
- IC50 (VEGF receptor KDR): 13 nM

Compound: CN(C)Cc1cccc(-c2cc3nccc(Oc4ccc(NC(=O)CC(=O)Nc5ccccc5F)cc4F)c3s2)c1 [drawing 462]
- Tumor Growth Inhibition (%) (A549; A549, 20 mg/kg p.o. once daily): b (% TGI in the range of 50-74)

Compound: COc1ccccc1NC(=O)CC(=O)Nc1ccc(Oc2ccnc3cc(-c4nccn4C)sc23)c(F)c1 [Compound 28a, N^1-(3-Fluoro-4-(2-(1-methyl-1H-imidazol-2-yl)thieno[3,2-b]pyridin-7-yloxy)phenyl)-N^3-(2-methoxyphenyl)malonamide]
- IC50 [1, 2]: 42 nM
- IC50 (TPR-MET fusion protein; [3]): ~200 nM
- IC50 (VEGF receptor KDR): 5 nM

Compound: Cn1ccnc1-c1cc2nccc(Oc3ccc(NC(=O)CC(=O)Nc4ccncc4)cc3F)c2s1 [Compound 34, N^1-{3-Fluoro-4-[2-(1-methyl-1H-imidazol-2-yl)-thieno[3,2-b]pyridin-7-yloxy]-phenyl}-N^3-pyridin-4-yl-malonamide]
- IC50 [1, 2]: 365 nM
- IC50 (TPR-MET fusion protein; [3]): > 5000 nM
- IC50 (VEGF receptor KDR): 19 nM
